The SangsterLogP compilation

Settings: pH 7.4

`COc1cc(N2CC3COCC(C2)N3)ccc1Nc1ncc(Cl)c(-c2cnc3ccccn23)n1` and `Cc1ncc(-c2ccnc(Nc3ccc(N4CCOCC4)cc3)n2)n1C(C)C` are within 0.2 log units of each other in logD: 3 for the first, 2.88 for the second.

First: COc1ccc2[nH]c3c(c2c1)CN(C(=O)[C@@H]1CCCC[C@H]1C(=O)NC1(C#N)CC1)CC3
Second: N#CC1(NC(=O)[C@@H]2CCCC[C@H]2C(=O)N2CCc3[nH]c4ccc(C(F)(F)F)cc4c3C2)CC1
The logD of the first is lower: 2.4 for the first, 4.2 for the second.

Compared with `Cc1ncc(-c2nc(Nc3ccc(N4CCN(C(=O)CO)CC4)cc3)ncc2F)n1C(C)C`, `Cc1ncc(-c2ccnc(Nc3ccc(N4CCN(S(=O)(=O)CCN(C)C)CC4)cc3)n2)n1C(C)C` is higher in logD: 2.19 for the first, 2.52 for the second.

Compared with `C[C@@H]1CN(C(=O)OC(C)(C)C)CCN1c1ncc(OCc2ccc(S(C)(=O)=O)cc2F)cn1`, `C[C@@H]1CN(C(=O)OC(C)(C)C)CCN1c1ncc(OCc2ccc(S(C)(=O)=O)cc2C#N)cn1` is lower in logD: 3.7 for the first, 3.3 for the second.

First: CCCSc1c(C(=O)NC2CCCCC2)cnn1C
Second: Cc1noc2cc(N3CCN(C(=O)[C@@H]4CCCC[C@H]4C(=O)NC4(C#N)CC4)[C@H](C)C3)ccc12
The logD of the first is higher: 2.99 for the first, 2.67 for the second.

Going from `C[C@H]1O[C@@H](n2cnc3c(N)nc(O[C@H]4CC[C@H](C)CC4)nc32)[C@H](O)[C@@H]1O` to `CC(=O)c1ncccc1NC(=O)C1CCC(N2C(=O)[C@@H]3[C@@H]4CC[C@@H](C4)[C@@H]3C2=O)CC1` (stereo not given in full), the logD rises from 2.35 to 3.01.

First: Cc1ccc(-c2cccc(-c3nn[nH]n3)c2)cc1
Second: Cc1nc2nc(-c3cccnc3)[nH]n2c(=O)c1Cc1ccccc1
The logD of the first is lower: 1.3 for the first, 1.52 for the second.

Going from `CCS(=O)(=O)c1ccc(-c2cc(C(F)(F)F)ccc2OCC(N)=O)c(C)c1` to `CCNC(=O)c1cc2c(-n3ccc(C(F)(F)F)n3)c(-c3cncc(C(=O)NC)c3)cnc2[nH]1`, the logD falls from 2.77 to 2.21.

First: COc1cnccc1COc1cnc(N2CCN(C(=O)OC(C)(C)C)CC2)nc1
Second: CC(C)(C)OC(=O)N1CCN(c2ccc(OCc3ccc(S(C)(=O)=O)cc3)cn2)CC1
The logD of the first is higher: 3.8 for the first, 3.2 for the second.

Going from `Cc1nnc(C)c2cc(N3CCN(C(=O)[C@@H]4CCCC[C@H]4C(=O)NC4(C#N)CC4)[C@H](C)C3)ccc12` to `N#CC1(NC(=O)[C@@H]2CCCC[C@H]2C(=O)N2CCc3[nH]c4ccccc4c3C2)CC1`, the logD rises from 1.93 to 2.66.

Compared with `Cc1ncc(-c2ccnc(Nc3ccc(S(=O)(=O)CCCN(C)C)cc3)n2)n1C(C)C`, `CC(C)(C)OC(=O)N1CCN(c2ccc(OCc3ccc(S(C)(=O)=O)cc3)nn2)CC1` is higher in logD: 1.32 for the first, 2.8 for the second.

Compared with `CC(C)(C)OC(=O)N1CCN(c2ccc(OCc3ccc(S(C)(=O)=O)cc3)cc2)CC1`, `N#CCNC(=O)[C@@H]1CCCC[C@H]1C(=O)N1CCN(c2ccc(C#N)cc2)CC1` is lower in logD: 3.9 for the first, 1.79 for the second.

Compared with `CS(=O)(=O)C1(c2cc(N3CCOCC3)nc(-c3cccc4[nH]ccc34)n2)CC1`, `CN1CCC(c2cc(N3CCOCC3)nc(-c3cccc4[nH]ccc34)n2)(S(C)(=O)=O)CC1` is lower in logD: 2.2 for the first, 1.9 for the second.

Going from `Cc1sc(N2CCN(C(=O)[C@@H]3CCCC[C@H]3C(=O)NC3(C#N)CC3)CC2)nc1C(F)(F)F` to `CC1(C)COCc2sc(N3CCN(C(=O)[C@@H]4CCCC[C@H]4C(=O)NC4(C#N)CC4)CC3)nc21`, the logD falls from 2.87 to 2.4.

Compared with `COc1ccc(N(C(=O)c2occc2CO)C(C(=O)NC[C@@H](C)O)c2ccccc2F)c(OC)c1` (stereo not given in full), `COc1ccc(N(C(=O)c2ccccc2)C(C(=O)NC[C@@H](C)O)c2ccccc2F)c(OC)c1` (stereo not given in full) is higher in logD: 1.37 for the first, 2.55 for the second.

First: CCNC(=O)c1cc2c(-n3ccc(C(F)(F)F)n3)c(-c3cncc(C#N)c3)cnc2[nH]1
Second: N#Cc1ccc(CN2CCN(c3ccc4nnc(C(F)(F)F)n4n3)CC2)cc1
The logD of the first is lower: 2.62 for the first, 2.9 for the second.

Compared with `CC(C)(C)c1cc2nc3c(c(=O)n2[nH]1)CN(Cc1ccccc1)C3=O`, `C[C@H]1COCCN1c1cc(CS(C)(=O)=O)nc(-c2ccc3[nH]ccc3c2)n1` is higher in logD: 1.9 for the first, 2.38 for the second.

Going from `N#CC1(NC(=O)[C@@H]2CCCC[C@H]2C(=O)N2CCc3[nH]c4ncccc4c3C2)CC1` to `CS(=O)(=O)c1cccc2c3c([nH]c12)CCN(C(=O)[C@@H]1CCCC[C@H]1C(=O)NC1(C#N)CC1)C3`, the logD falls from 2.13 to 1.7.

Compared with `CC(C)Oc1cc(OCCN2CCOCC2)cc2ncnc(Nc3c(Cl)ccc4c3OCO4)c12`, `COc1cc2ncnc(Nc3cccc(Cl)c3F)c2cc1OC1CCN(CC(N)=O)CC1` is lower in logD: 3.68 for the first, 3.1 for the second.

Going from `Cc1nc2nc[nH]n2c(=O)c1CCOC(=O)c1c(F)cccc1F` to `COc1cc(OC)c(S(=O)(=O)N2c3ccccc3Oc3ccccc32)cc1NC(=O)Cc1ccnc(F)c1`, the logD rises from 0.16 to 3.37.
